Test results reported in US20130150317A1, “COMPOUNDS FOR THE TREATMENT OF RENAL CELL CARCINOMA” (Myrovlytis Technology Ventures Limited, priority 2010, published 2013).
Entries after “also recorded” stand apart in the source; their conditions may differ. Like-named read-outs stand apart in the source and are kept apart here.

Legend:
[1] = test system: FTC-133 cells transfected with empty vector; test: SRB growth inhibition in FTC-133 cells, empty vector; format: cell-based, human; conditions: for GI50: Homo sapiens; for differential sensitivity in FTC-133 cells with different levels of FLCN expression (in words): SRB assay
From the text: (§1) Human renal carcinoma of BHD origin cells UOK-257 (UOK-FLCN^−) and FLCN transfected UOK-257 cells UOK-FLCN^+ (Yang et al Cancer Genet Cytogenet. 2008 Jan. 15; 180(2):100-9) were provided by Dr Marston Linehan and Dr. Laura S Schmidt (Urologic Oncology Branch, Centre for Cancer Research, National Cancer Institute, National Institutes of Health, Bethesda, Md. 20892, USA). UOK-257 is the only RCC cell line that has been derived from a patient with BHD and harbours a germline FLCN frameshift mutation (c.1285dupC) (predicted, in the absence of nonsense mediated mRNA decay, to lead to premature protein truncation (p.His429ProfsX27) (Yang et al., Cancer Genet Cytogenet, 2008 Jan. 15; 180(2):100-9). We are not aware of any sporadic RCC cell lines with homozygous FLCN inactivation. FTC-133 cells were purchased from ECACC (Salisbury, United Kingdom). These cells are a non-RCC cell line derived from human thyroid carcinoma. 786-0 cells were available from the author's lab (Clifford et al., Hum Mol Genet. 2001 May 1; 10(10):1029-38). 786-O is a kidney cancer cell line that harbours an inactivating VHL gene mutation (c.311delG p.G104fs*55). All cell lines were cultured in DMEM with supplement of 10% foetal bovine serum except for FTC-133 cells which were incubated in medium with DMEM and Hens (1:1).
(§2) The sensitivity of the cell lines to drug-induced cell growth inhibition was determined using the sulphorhodamine B assay (SRB) as described by Lu et al., Clin Cancer Res. 2001:7:2114-23. Briefly, adherent exponentially growing cells were seeded into 96-well plates at 3-5×10^3 cells/100 μl/well. […] The absorbance per well was measured at 570 nm on a Victor X3 Multilabel Plate Reader (PerkinElmor, Beaconsfield, United Kingdom).
(§3) A FLCN containing construct was introduced into parental FTC-133 cells and stably transfected cells were selected. SRB growth inhibition assay was carried out in cells transfected with empty vector and low FLCN and high FLCN expression.
as §3

[2] = test system: FTC-133 cells with FLCN expressed at low levels; test: SRB growth inhibition in FTC-133 cells, low FLCN expression; format: cell-based; conditions: Homo sapiens, SRB assay
From the text: as §1, with “786-O is a kidney cancer cell line that harbours an inactivating VHL gene mutation (c.311delG p.G104fs*55). All cell lines were cultured in DMEM with supplement of 10% foetal bovine serum except for FTC-133 cells which were incubated in medium with DMEM and Hens (1:1).” left out
(§4) The sensitivity of the cell lines to drug-induced cell growth inhibition was determined using the sulphorhodamine B assay (SRB) as described by Lu et al., Clin Cancer Res. 2001:7:2114-23. […] The absorbance per well was measured at 570 nm on a Victor X3 Multilabel Plate Reader (PerkinElmor, Beaconsfield, United Kingdom). […]

[3] = test system: caspase3/7 activity in UOK257-FLCN^− and UOK257-FLCN^+ cells; test: Caspase-Glo 3/7 assay in UOK-257 cells with/without FLCN expression; format: cell-based, human
Description: The ability to induce caspase 3/7 activation after exposure to compounds was measured by Caspase-Glo 3/7 Assay (Promega, Southampton, United Kingdom) according to manufacturer's instruction. The cells were seeded and dosed as described in growth inhibition assay. At the end of incubation, 70 μl of medium was removed and 30 μl of assay reagent was added to the remaining medium. Additional one hour incubation with shaking was carried out at room temperature. The resultant luminescent light was measured in a Victor X3 Multilabel Plate Reader (PerkinElmer, Beaconsfield, United Kingdom). Cell viability after compound exposure was determined by CellTiter-Blue Cell Viability Assay (Promega, Southampton, the United Kingdom) according to manufacturer's instruction. At the end of drug treatment, 20 μl of reagent was added to the medium in 96 wells and the cells were incubated for additional 4 hours. The cell viability was measured by fluorescence with a 570 nm excitation and 590 nm emission set in a Victor X3 Multilabel Plate Reader (PerkinElmer, Beaconsfield, United Kingdom).
After 48 hrs incubation, with three concentration ranges for each drug, the capase3/7 activity was detected by amount of luminescence for each cell line. The ratio of caspase3/7 activity from UOK257-FLCN^− and UOK257-FLCN^+ were calculated and used as indicators for the ability of the individual compound to induce caspase3/7 activity to FLCN mutant cells.
These ratios were calculated and used as indicators for the sensitivity to mutant FLCN cells.

UOK257-FLCN^− cells [4] = conditions: 4×GI50 mithramycin alone
Description: At the end of the time course, media was carefully removed and cells were fixed in 85% ice-cold ethanol. After removal of ethanol, cells were incubated in the dark at 37° C. for 20 minutes in PBS buffers containing 0.1% Triton X-100, 100 mg/mL RNase A and 10 mg/mL Propidium iodide (PI). The 96-well plates were subsequently scanned using the Acumen eX3 cytometer (TTP LabTech).

[5] = test system: FTC-133 cells with FLCN expressed at high levels; test: SRB growth inhibition in FTC-133 cells, high FLCN expression; format: cell-based; conditions: Homo sapiens, SRB assay
From the text: as §1, with “786-O is a kidney cancer cell line that harbours an inactivating VHL gene mutation (c.311delG p.G104fs*55). All cell lines were cultured in DMEM with supplement of 10% foetal bovine serum except for FTC-133 cells which were incubated in medium with DMEM and Hens (1:1).” left out
as §4

UOK257-FLCN^− cells [6] = test: SRB growth inhibition assay in UOK257-FLCN^− cells; format: cell-based, human; conditions: for GI50: Homo sapiens
From the text: as §1, §2
GI50 values, defined as the concentration of compounds required to inhibit growth by 50%, were then calculated. The ratio of GI50 value from UOK257-FLCN^+ and UOK257-FLCN^− were calculated and used as an indicator for the sensitivity to FLCN mutant cells.

UOK257-FLCN^+ cells = test: Clonogenic cell survival assay in UOK257-FLCN^+ cells; format: cell-based, human; conditions: 72 hrs exposure
From the text: Colonies with over 30 cells were counted.

For `CO[C@H](C(=O)[C@@H](O)[C@@H](C)O)C1Cc2cc3cc(OC4CC(OC5CC(O)C(O)C(C)O5)C(O)C(C)O4)c(C)c(O)c3c(O)c2C(=O)[C@H]1OC1CC(OC2CC(OC3CC(C)(O)C(O)C(C)O3)C(O)C(C)O2)C(O)C(C)O1` (stereo partly drawn) [mithramycin, Mithramycin], the GI50 ([1]; FTC-133, 72 h, read-out: GI50 in FTC-133 cells, empty vector) was 59.3 ± 8.9 nM, the GI50 ([1]; FTC-133, read-out: GI50 in FTC-133 cells, empty vector) was 59.3 ± 8.9 nM and the “differential sensitivity in FTC-133 cells with different levels of FLCN expression (in words)” value [1] was “no apparent differential mithramycin sensitivity”. The “differential sensitivity in FTC-133 cells with different levels of FLCN expression (in words)” value ([1]; listed as Mithramycin) was “does not show genotypic selective growth inhibitory activity”, the GI50 [2] was 38.7 ± 10.4 nM and the GI50 ([2]; 72 hours) was 38.7 ± 10.4 nM. For the same compound, the “induction of caspase 3/7 activity, FLCN-null versus FLCN-wild type cells (in words)” value [3] was “preferentially induced caspase 3/7 activity in UOK257 FLCN-null cells in a dose dependent manner; also recorded: Differential ability to induce caspase 3/7 activity”, the “induction of caspase 3/7 activity, FLCN-null versus FLCN-wild type cells (in words)” value ([3]; listed as Mithramycin) was “preferentially induces caspase 3/7 activity in FLCN-null cells in a dose dependent manner” and the “lengthening of the S and G2-M time” value (UOK257-FLCN^− cells [4]) was 100%. It also gave a GI50 [5] of 35.3 ± 7.3 nM, a GI50 ([5]; 72 hours) of 35.3 ± 7.3 nM and a GI50 (UOK257-FLCN^− cells [6]; 72 h, read-out: GI50 nM in UOK-FLCN^−) of 64.2 ± 7.9 nM. The GI50 (UOK257-FLCN^− cells [6]; 72 h, read-out: GI50 in UOK257-FLCN^− cells, rapamycin combination experiment) was 69 ± 10 nM, the GI50 (UOK257-FLCN^− cells [6]; read-out: GI50 in FLCN-null UOK257 cells) was 64.2 ± 7.9 nM and the “GI50 Ratio of UOK-FLCN^+/UOK-FLCN^−” value (UOK257-FLCN^− cells [6]; ratio>1 = more inhibitory to FLCN^− cells) was 9.88. The “cell survival (clonogenic), UOK257-FLCN^+ cells” value (UOK257-FLCN^+ cells; 200 nM) was “more than 85%”, the “cells able to form colonies, UOK257-FLCN^+ cells” value (UOK257-FLCN^+ cells; 500 nM) was “more than 60%” and the “cells survived (clonogenic), UOK257-FLCN^+ cells” value (UOK257-FLCN^+ cells; 5000 nM) was “more than 4%”.
